The values below come from patent US20220241266A1, “COMPOSITIONS AND METHODS USING TRIGONELLINE AND HIGH PROTEIN FOR PREVENTING OR TREATING CONDITIONS OR DISORDERS IN SKELETAL MUSCLE” (SOCIETE DES PRODUITS NESTLE S.A., priority 2019, published 2022).

Assay [1] concerns C. elegans. The following applies: 1 mM, chronic exposure from Day 1 adulthood. As for the experimental part:
Worm lifespan tests were performed using about 100 animals per condition and scored manually every other day. Trigonelline treatment and experimental measurements were started at Day 1 of wild type N2 worm adulthood, in a regimen of chronic exposure till experiments termination.

In assay [2] the test system is C. elegans. Particulars: 1 mM, vs control. Here is the method: C. elegans mobility test was performed using the Movement Tracker software (Mouchiroud, L. et al. Curr Protoc Neurosci 77, 8.37.1-8.37.21 (2016)). The experiments were repeated at least twice. Trigonelline treatment and experimental measurements were started at Day 1 of wild type N2 worm adulthood, in a regimen of chronic exposure till experiments termination.

Assay [3] relates to C. elegans. The following applies: 1 mM, day 8 and day 11 old worms, vs control. From the text:
45 to 60 worms per condition were manually scored for mobility after poking. Worms that were unable to respond to any repeated stimulation were scored as dead. […] Trigonelline treatment and experimental measurements were started at Day 1 of wild type N2 worm adulthood, in a regimen of chronic exposure till experiments termination.

The test system of assay [4] is Human Skeletal Muscle Myotubes (HSMM). Particulars: 6 h, 500 μm. Here is the method:
Human primary myoblasts from two different donors were seeded in 6 well plates at a density of 200,000 cells per well in skeletal muscle growth medium (SKM-M, AMSbio). After one day, the differentiation was induced by a medium change for 4 days using differentiation culture medium (Gibco No. 31330-028). Cells were treated with isotopically labelled trigonelline (^13C carbonyl; 3^2H on methyl) for 6 h.
Cell extracts were separated on a Vanquish UHPLC+focused LC system (Thermo Scientific) with a hydrophilic liquid chromatography (HILIC) iHILIC-Fusion(P) column (Hilicon) carrying the dimensions 150×2.1 mm, 5 μm and a guard column (iHILIC-fusion(P), Hilicon) in front. The separation of metabolites was achieved by applying a linear solvent gradient in normal phase at 0.25 mL/min flow rate and 35° C. of temperature. As mobile phase, solvent A was water with 10 mM ammonium acetate and 0.04% (v/v) ammonium hydroxide, pH ˜9.3, and solvent B was acetonitrile.
The eluting metabolites were analyzed with an Orbitrap Fusion Lumos mass spectrometer (Thermo Scientific) with a heated electrospray ionization (H-ESI) source in positive and negative mode at a resolution of 60,000 at m/z of 200. Instrument control and data analysis were conducted using Xcalibur (Thermo Scientific).

Assay [5] has the same test system. As to the kind of experiment: Colorimetric NAD+ quantification in differentiated human primary myoblasts. Format: cell-based. The following applies: 16 h, different doses. As for the experimental part: After one day, the differentiation is induced by a medium change for 4 days. Cells were treated with synthetic trigonelline monohydrate (FIG. 4A) or with Fenugreek seed extract enriched in trigonelline containing 40.45% trigonelline (FIG. 4B) for 16 h at difference doses. NAD^+ was measured using colorimetric NAD^+ quantification assay (Biovision NAD^+/NADH Quantitation Colorimetric Kit #k337-100).

Assay [6] deals with C57BL/6JRj male mice. As to the kind of experiment: Liver NAD+ in mice after oral gavage. Format: in vivo. The following applies: equimolar of 300 mg/kg trigonelline, 120 minutes. Here is the method: FIG. 5—Liver NAD^+ levels of C57BL/6JRj mice measured 120 minutes after administration of 300 mg/kg trigonelline chloride or an equimolar amount of fenugreek seed extract by oral gavage
10 weeks C57BL/6JRj male mice received trigonelline (sigma #T5509) or fenugreek seed extract enriched in trigonelline (40.45% trigonelline) by oral gavage (equimolar of 300 mg/kg trigonelline, n=8/group). After 120 minutes treatment, the liver was harvested and flash frozen in liquid nitrogen. NAD^+ was measured in liver using an enzymatic method adapted from Dall, M., et al., Mol Cell Endocrinol, 2018. 473: p. 245-256.

The test system of assay [7] is RW1596 (myo-3p::GFP) worms. Particulars: 1 mM trigonelline chloride, 11 day old worms vs age matched control. Here is the method: RW1596 (myo-3p::GFP) worms were collected at Day 1 (young adults) and at Day 11 (aged animals) for muscle integrity assessment. Worms were immobilized with tetramisole and analyzed by confocal microscopy, to assess the muscle fibers morphology shown by GFP fluorescence imaging. Trigonelline treatment with 1 mM trigonelline chloride and experimental measurements were started at Day 1 of wild type N2 worm adulthood, in a regimen of chronic exposure till experiments termination.

For assay [8], the system named is C. elegans. The following applies: 1 mM trigonelline chloride, day 8 old worms, vs control. As for the experimental part:
Absolute quantification of the mtDNA copy number in wild type N2 worms was performed by real-time PCR. Relative values for nduo-1, and act-1 were compared within each sample to generate a ratio representing the relative level of mitochondrial DNA per nuclear genome. The average of at least two technical repeats was used for each biological data point. Each experiment was performed on at least ten independent biological samples (individual worms). Trigonelline treatment with 1 mM trigonelline chloride and experimental measurements were started at Day 1 of wild type N2 worm adulthood, in a regimen of chronic exposure till experiments termination.

Take `C[n+]1cccc(C(=O)O)c1.[Cl-]` [trigonelline chloride]: the increase of lifespan in assay [1] is reported as 21%. The “distance travelled during spontaneous mobility assay” value in assay [2] (advanced aging phase) is given as “significantly increased”. In addition, the “mean speed during spontaneous mobility assay” value in assay [2] (from day 1 adulthood) is recorded as “increased the mean speed compared to the control”. Besides, in assay [3], the “stimulated mobility score (worms responsive to a physical stimulus)” value is reported as “more responsive to a physical stimulus than the control”.
Turning to `[2H]C([2H])([2H])[n+]1cccc([13C](=O)[O-])c1` [labelled trigonelline], the “relative abundance of labelled NAD+ (M+1)” value in assay [4] (HSMM, vs naturally occurring NAD+ control) is on record as “increase in relative abundance of labelled NAD+ (M+1)”.
Consider `C[n+]1cccc(C(=O)[O-])c1` [chemically synthesized trigonelline, trigonelline monohydrate], for which, in assay [5], the “NAD+ content compared to the control” value is on record as “significant increase in NAD^+ content”. Besides, the “NAD+ content in the liver compared to the control” value in assay [6] is recorded as “significant increase in NAD^+ content in the liver”.
Regarding `C[n+]1cccc(C(=O)[O-])c1` [trigonelline, 1-methylpyridin-1-ium-3-carboxylate], the “myofibrillar structure (GFP-tagged myosin)” value in assay [7] was “improved more organized myofibrillar structure”. The “NAD+ relative concentration relative to control (LC-MS)” value in assay [4] (HSMM from 2 donors) was “enhancement of NAD+”. The “ratio of mitochondrial-encoded gene (nduo-1) to nuclear-encoded gene (act-1)” value in assay [8] is “higher than in the control group”.
